Test results from patent US7338958B2, “Sulfoximine-substituted pyrimidines as CDK-and/or VEGF inhibitors, their production and use as pharmaceutical agents” (Schering AG, priority 2003, dated 2008).
Where a name gives a salt, the structure may show the parent alone.

Assays:
[1] = target: T1, VEGF receptor tyrosine kinase-2 (Homo sapiens, UniProt P35968); assay: VEGF Receptor-2 Kinase Assay; format: biochemical; settings: poly-(Glu4Tyr) substrate, 33P-ATP, 10 minutes at 22° C.; read-out: VEGF-R2 IC50
T1 construct: GST; made in house; host or cells: baculovirus-infected insect cells (Sf9)
T1 sequence (P35968 20-1356): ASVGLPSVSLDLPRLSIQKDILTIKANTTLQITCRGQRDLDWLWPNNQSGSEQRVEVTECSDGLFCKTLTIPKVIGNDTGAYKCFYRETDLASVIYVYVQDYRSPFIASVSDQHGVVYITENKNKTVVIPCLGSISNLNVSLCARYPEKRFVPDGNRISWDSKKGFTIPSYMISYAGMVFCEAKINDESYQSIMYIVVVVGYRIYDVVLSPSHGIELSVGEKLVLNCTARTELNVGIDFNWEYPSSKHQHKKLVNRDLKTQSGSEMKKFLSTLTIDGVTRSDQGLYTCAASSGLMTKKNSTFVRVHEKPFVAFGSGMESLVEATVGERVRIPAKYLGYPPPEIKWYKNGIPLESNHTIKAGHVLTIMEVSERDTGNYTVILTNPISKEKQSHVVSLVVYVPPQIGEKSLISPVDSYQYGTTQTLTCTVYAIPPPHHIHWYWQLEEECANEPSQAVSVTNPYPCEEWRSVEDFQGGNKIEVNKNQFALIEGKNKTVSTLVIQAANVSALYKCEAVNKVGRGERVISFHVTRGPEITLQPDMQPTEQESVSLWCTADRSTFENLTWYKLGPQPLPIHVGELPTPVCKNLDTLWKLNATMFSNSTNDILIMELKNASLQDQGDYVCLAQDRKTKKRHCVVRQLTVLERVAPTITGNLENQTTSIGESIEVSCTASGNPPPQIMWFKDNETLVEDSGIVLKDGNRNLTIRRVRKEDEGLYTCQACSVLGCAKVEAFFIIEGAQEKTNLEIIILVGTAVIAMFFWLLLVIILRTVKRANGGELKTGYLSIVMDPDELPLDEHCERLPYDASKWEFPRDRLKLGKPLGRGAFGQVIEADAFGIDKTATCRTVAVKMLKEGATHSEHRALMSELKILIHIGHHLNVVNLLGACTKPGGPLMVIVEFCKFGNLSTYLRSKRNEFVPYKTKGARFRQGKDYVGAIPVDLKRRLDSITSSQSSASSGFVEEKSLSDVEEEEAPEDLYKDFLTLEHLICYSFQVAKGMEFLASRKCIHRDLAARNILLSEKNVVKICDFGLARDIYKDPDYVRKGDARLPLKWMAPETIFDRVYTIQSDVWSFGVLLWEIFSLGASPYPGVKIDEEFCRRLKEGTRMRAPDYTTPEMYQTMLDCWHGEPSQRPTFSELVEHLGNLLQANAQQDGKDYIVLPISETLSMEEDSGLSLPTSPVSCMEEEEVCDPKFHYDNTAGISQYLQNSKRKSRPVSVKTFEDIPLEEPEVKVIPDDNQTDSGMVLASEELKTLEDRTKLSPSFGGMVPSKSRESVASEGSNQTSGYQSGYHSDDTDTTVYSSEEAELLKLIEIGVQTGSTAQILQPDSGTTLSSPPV

[2] = tested on: NCI-H460, human non-small-cell lung cancer cells; assay: Proliferation assay, H460; format: cell-based; settings: NCI-H460, 96 h, 4 days incubation, crystal violet
Source text: (§1) Cultivated human tumor cells (MCF7, hormone-independent human breast cancer cells, related to ATCC HTB22; NCI-H460, human non-small-cell lung cancer cells, ATCC HTB-177, HCT 116, human colon cancer cells, ATCC CCL-247; DU 145, hormone-independent human prostate cancer cells, ATCC HTB-81; MaTu-MDR, hormone-independent, multiple pharmaceutical agent-resistant human breast cancer cells, EPO-GmbH, Berlin) were flattened out at a density of about 5000 cells/measuring point, depending on the growth rate of the respective cells, in a 96-well multititer plate in 200 μl of the corresponding growth medium. After 24 hours, the cells of one plate (zero-point plate) were colored with crystal violet (see below), while the medium of the other plates was replaced by fresh culture medium (200 μl), to which the test substances were added in various concentrations (0 μm, as well as in the range of 0.01-30 μm; the final concentration of the solvent dimethyl sulfoxide was 0.5%). The cells were incubated for 4 days in the presence of test substances. The cell proliferation was determined by coloring the cells with crystal violet: the cells were fixed by adding 20 μl/measuring point of an 11% glutaric aldehyde solution for 15 minutes at room temperature. After three washing cycles of the fixed cells with water, the plates were dried at room temperature. The cells were colored by adding 100 μl/measuring point of a 0.1% crystal violet solution (the pH was set at 3 by adding acetic acid). After three washing cycles of the colored cells with water, the plates were dried at room temperature. The dye was dissolved by adding 100 μl/measuring point of a 10% acetic acid solution. The extinction was determined by photometry at a wavelength of 595 nm. The change of cell growth, in percent, was calculated by normalization of the measured values to the extinction values of the zero-point plate (=0%) and the extinction of the untreated (0 μm) cells (=100%).

MaTu-ADR = assay: Proliferation assay, MaTu-ADR; format: cell-based; settings: Homo sapiens, 96 h, MaTu-ADR cells, 4 days incubation, crystal violet
Source text: as §1

[3] = tested on: DU 145, hormone-independent human prostate cancer cells; assay: Proliferation assay, DU145; format: cell-based; settings: DU-145, 96 h, 4 days incubation, crystal violet
Source text: as §1

CDK2/CycE = target: T2, CDK2/CycE (Homo sapiens, UniProt P24941); assay: CDK2/CycE Kinase Assay; format: biochemical; settings: histone IIIS substrate, 33P-ATP, 15 minutes at 22° C.
T2 construct: GST; purchased ProQinase GmbH, Freiburg; host or cells: baculovirus-infected insect cells (Sf9)
Method: Recombinant CDK2- and CycE-GST-fusion proteins, purified from baculovirus-infected insect cells (Sf9), were purchased by ProQinase GmbH, Freiburg. Histone IIIs, which was used as a kinase substrate, was purchased by the Sigma Company.
CDK2/CycE (50 ng/measuring point) was incubated for 15 minutes at 22° C. in the presence of various concentrations of test substances (0 μm, as well as within the range of 0.01-100 μm) in assay buffer [50 mmol of tris/HCl, pH 8.0, 10 mmol of MgCl2, 0.1 mmol of Na ortho-vanadate, 1.0 mmol of dithiothreitol, 0.5 μm of adenosine triphosphate (ATP), 10 μg/measuring point of histone IIIS, 0.2 μCi/measuring point of ^33P-gamma ATP, 0.05% NP40, 12.5% dimethyl sulfoxide]. The reaction was stopped by adding EDTA solution (250 mmol, pH 8.0, 14 μl/measuring point).
From each reaction batch, 10 μl was applied to P30 filter strips (Wallac Company), and non-incorporated ^33P-ATP was removed by subjecting the filter strips to three washing cycles for 10 minutes each in 0.5% phosphoric acid. After the filter strips were dried for one hour at 70° C., the filter strips were covered with scintillator strips (MeltiLex™ A, Wallac Company) and baked for one hour at 90° C. The amount of incorporated ^33P (substrate phosphorylation) was determined by scintillation measurement in a gamma-radiation measuring device (Wallac).

CDK1/CycB = target: T3, CDK1/CycB (Homo sapiens, UniProt P06493); assay: CDK1/CycB Kinase Assay; format: biochemical; settings: histone IIIS substrate, 33P-ATP, 15 minutes at 22° C.
T3 construct: GST; purchased ProQinase GmbH, Freiburg; host or cells: baculovirus-infected insect cells (Sf9)
T3 sequence (P06493 whole entry): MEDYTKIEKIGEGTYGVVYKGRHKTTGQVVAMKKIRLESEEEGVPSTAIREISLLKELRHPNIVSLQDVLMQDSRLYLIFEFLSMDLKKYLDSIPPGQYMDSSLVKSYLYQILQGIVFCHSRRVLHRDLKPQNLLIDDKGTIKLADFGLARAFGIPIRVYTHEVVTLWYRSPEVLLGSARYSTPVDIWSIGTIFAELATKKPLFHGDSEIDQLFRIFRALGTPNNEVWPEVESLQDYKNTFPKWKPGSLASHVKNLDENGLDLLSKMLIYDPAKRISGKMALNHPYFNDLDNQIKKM
T3 sequence (P14635 whole entry partner): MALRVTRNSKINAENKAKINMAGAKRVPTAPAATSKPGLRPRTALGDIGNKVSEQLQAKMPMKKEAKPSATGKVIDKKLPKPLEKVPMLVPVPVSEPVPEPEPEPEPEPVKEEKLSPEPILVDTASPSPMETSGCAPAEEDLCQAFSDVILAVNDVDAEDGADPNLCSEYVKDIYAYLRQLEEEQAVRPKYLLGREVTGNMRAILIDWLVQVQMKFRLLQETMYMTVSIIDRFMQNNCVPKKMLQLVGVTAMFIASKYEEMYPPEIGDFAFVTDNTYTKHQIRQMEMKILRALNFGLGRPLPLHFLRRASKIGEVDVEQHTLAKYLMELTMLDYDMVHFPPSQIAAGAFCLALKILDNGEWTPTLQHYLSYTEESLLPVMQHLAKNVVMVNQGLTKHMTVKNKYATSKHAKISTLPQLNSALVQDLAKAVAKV

[4] = tested on: MCF7, hormone-independent human breast cancer cells; assay: Proliferation assay, MCF7; format: cell-based; settings: MCF7, 96 h, 4 days incubation, crystal violet
Method in brief: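 Cells seeded ~5000/well, treated after 24 h with 0.01-30 μM compound (0.5% DMSO) for 4 days. Glutaraldehyde-fixed cells stained with crystal violet, absorbance at 595 nm; growth expressed as percent, normalized to zero-point plate (0%) and untreated cells (100%).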

Row | IC50 [1] | IC50 [2] | IC50 [3] | IC50 (CDK2/CycE) | IC50 (CDK1/CycB) | IC50 [4] | Structure (SMILES) | IC50 (MaTu-ADR) | melting point
1 | 140 nM | 180 nM | 300 nM | 9 nM | 27 nM | 200 nM | CCOC(=O)N=S(C)(=O)c1ccc(Nc2ncc(Br)c(N[C@H](C)C(C)(C)O)n2)cc1 (mixture of isomers) [Example 1.31, (RS)-S-[4-({5-bromo-4-[(R)-(2-hydroxy-1,2-dimethylpropyl)amino]pyrimidin-2-yl}amino)phenyl]-N-(ethoxycarbonyl)-S-methyl sulfoximide] | 700 nM | 
2 | 56 nM | 180 nM | 300 nM | 12 nM | 16 nM | 190 nM | CCOC(=O)N=S(C)(=O)c1ccc(Nc2ncc(Br)c(N[C@H](C)[C@@H](C)O)n2)cc1 (mixture of isomers) [Example 1.32, (RS)-S-[4-({5-bromo-4-[(1R,2R)-(2-hydroxy-1-methylpropyl)amino]pyrimidin-2-yl}amino)phenyl]-N-(ethoxycarbonyl)-S-methyl sulfoximide] | 600 nM | 
3 | 94 nM | 120 nM | 120 nM | 42 nM | 96 nM | 110 nM | CCOC(=O)N=S(=O)(CC)c1ccc(Nc2ncc(Br)c(N[C@H](C)C(C)(C)O)n2)cc1 (mixture of isomers) [Example 1.35, (RS)-S-[4-({5-bromo-4-[(R)-(2-hydroxy-1,2-dimethylpropyl)amino]pyrimidin-2-yl}amino)phenyl]-N-(ethoxycarbonyl)-S-ethyl sulfoximide] | 300 nM | 
4 | 92 nM | 120 nM | 170 nM | 11 nM | 43 nM | 140 nM | CCOC(=O)N=S(=O)(CC)c1ccc(Nc2ncc(Br)c(N[C@H](C)[C@@H](C)O)n2)cc1 (mixture of isomers) [Example 1.36, (RS)-S-[4-({5-bromo-4-[(1R,2R)-(2-hydroxy-1-methylpropyl)amino]pyrimidin-2-yl}amino)phenyl]-N-(ethoxycarbonyl)-S-ethyl sulfoximide] | 1200 nM | 
5 | 57 nM | < 100 nM | 160 nM | 48 nM | 63 nM | 170 nM | CCOC(=O)N=S(C)(=O)c1ccc(Nc2ncc(Br)c(N[C@H](C)C(C)(C)O)n2)cc1C (mixture of isomers) [Example 1.37, (RS)-S-[4-({5-bromo-4-[(R)-(2-hydroxy-1,2-dimethylpropyl)amino]pyrimidin-2-yl}amino)-2-methylphenyl]-N-(ethoxycarbonyl)-S-methyl sulfoximide] | 300 nM | 
6 | 59 nM | 60 nM | 130 nM | 78 nM | 75 nM | 120 nM | CCOC(=O)N=S(C)(=O)c1ccc(Nc2ncc(Br)c(N[C@H](C)[C@@H](C)O)n2)cc1C (mixture of isomers) [Example 1.38, (RS)-S-[4-({5-bromo-4-[(1R,2R)-(2-hydroxy-1-methylpropyl)amino]pyrimidin-2-yl}amino)-2-methylphenyl]-N-(ethoxycarbonyl)-S-methyl sulfoximide] | 400 nM | 
7 | 110 nM | 170 nM | 180 nM | 14 nM | 21 nM | 110 nM | CCOC(=O)N=S(C)(=O)c1ccc(Nc2ncc(Br)c(O[C@H](C)[C@@H](C)O)n2)cc1 (mixture of isomers) [Example 1.40, (RS)-S-[4-({5-bromo-4-[(1R,2R)-2-hydroxy-1-methylpropoxy]pyrimidin-2-yl}amino)phenyl]-N-(ethoxycarbonyl)-S-methyl sulfoximide] | 300 nM | 
8 | 39 nM | 40 nM | 40 nM | 4 nM | 4 nM | 60 nM | Cc1cc(Nc2ncc(Br)c(N[C@H](C)[C@@H](C)O)n2)ccc1S(C)(=N)=O (mixture of isomers) [Example 1.60, (RS)-S-[4-({5-bromo-4-[(1R,2R)-(2-hydroxy-1-methylpropyl)amino]pyrimidin-2-yl}amino)-2-methylphenyl]-S-methyl sulfoximide] | 40 nM | 
9 |  |  |  |  |  |  | CCC(Sc1nc(Nc2ccc(S(C)(=N)=O)cc2)ncc1Br)C(C)=O (racemic) (as salt: sodium) [Example 3.3, (RS)-S-[4-({4-[(RS)-(1-acetylpropyl)sulfanyl]-5-bromopyrimidin-2-yl}amino)phenyl]-S-methyl sulfoximide] |  | 192 to 194 °C
10 |  |  |  |  |  |  | C[C@H](CO)Nc1nc(Nc2ccc(S(=O)(CC3CC3)=NS(=O)(=O)CC[Si](C)(C)C)cc2)ncc1Br (mixture of isomers) [Example 1.7, (RS)-S-[4-({5-bromo-4-[(R)-(2-hydroxy-1-methylethyl)amino]pyrimidin-2-yl}amino)phenyl]-S-(cyclopropylmethyl)-N-[2-(trimethylsilyl)ethylsulfonyl]sulfoximide] |  | 195 °C (dec.)
11 |  |  |  |  |  |  | C[C@@H](Nc1nc(Nc2ccc(S(=O)(=NS(=O)(=O)CC[Si](C)(C)C)C3CCCC3)cc2)ncc1Br)C(C)(C)O (mixture of isomers) [Example 1.10, (RS)-S-[4-({5-bromo-4-[(R)-(2-hydroxy-1,2-dimethylpropyl)amino]pyrimidin-2-yl}amino)phenyl]-S-cyclopentyl-N-[2-(trimethylsilyl)ethylsulfonyl]sulfoximide] |  | 200 to 201 °C
12 |  |  |  |  |  |  | C[C@@H](Nc1nc(Nc2ccc(S(=N)(=O)C3CCCC3)cc2)ncc1Br)C(C)(C)O (mixture of isomers) [Example 1.11, (RS)-S-[4-({5-bromo-4-[(R)-(2-hydroxy-1,2-dimethylpropyl)amino]pyrimidin-2-yl}amino)phenyl]-S-cyclopentylsulfoximide] |  | 194 to 196 °C
13 |  |  |  |  |  |  | C[C@H](CO)Nc1nc(Nc2ccc(S(C)(=O)=NS(=O)(=O)CC[Si](C)(C)C)cc2)ncc1Br (mixture of isomers) [Example 2.1, (RS)-S-[4-({5-bromo-4-[(R)-(2-hydroxy-1-methylethyl)amino]pyrimidin-2-yl}amino)phenyl]-S-methyl-N-[2-(trimethylsilyl)ethylsulfonyl]sulfoximide] |  | 194 to 197 °C
14 | 150 nM | 50 nM | 60 nM | 8 nM | 17 nM | 120 nM | CC(O)C(C)Sc1nc(Nc2ccc(S(C)(=N)=O)cc2)ncc1Br (racemic) [Example 3.5, (RS)-S-[4-({5-bromo-4-[(RS,RS)-(2-hydroxy-1-methylpropyl)sulfanyl]pyrimidin-2-yl}amino)phenyl]-S-methyl sulfoximide] | 30 nM | 
15 |  |  |  | 4 nM | 18 nM | 400 nM | CC(CO)Sc1nc(Nc2ccc(S(C)(=N)=O)cc2)ncc1Br (racemic) [Example 3.10, (RS)-S-[4-({5-bromo-4-[(RS)-(2-hydroxy-1-methyl-ethyl)sulfanyl]pyrimidin-2-yl}amino)phenyl]-S-methyl sulfoximide] |  | 218 to 220 °C
